Results from patent US20170240556A1, “BIFLUORODIOXALANE-AMINO-BENZIMIDAZOLE KINASE INHIBITORS FOR THE TREATMENT OF CANCER, AUTOIMMUNEINFLAMMATION AND CNS DISORDERS” (4SC DISCOVERY GMBH, priority 2012, published 2017).

Target: Casein kinase 1 delta (CSKN1D) (Homo sapiens, UniProt P48730)
Assay: Casein kinase assay, CK1 delta
Type: biochemical
Conditions: recombinant CSKN1D 5 nM, ATP 10 μM
Procedure: The recombinant protein Casein kinase 1 delta (CSKN1D) was added to the substrate solution in a concentration of 5 nM and gently mixed. Dilution series in of compounds of the present invention in DMSO were added to the reaction mixture, followed after 20 min by addition of a mixture of ATP and ^33P-ATP (specific activity 0.01 μCi/μl final) to a final concentration of 10 μM. Reactions were carried out at 25° C. for 120 min, followed by spotting the reactions onto P81 ion exchange filter paper. Unbound phosphate was removed by washing of the filters in 0.75% phosphoric acid. […] IC50 values and curve fits were obtained using the program Prism® (Graph Pad Software).

Sequence of Casein kinase 1 delta (CSKN1D) (P48730 whole entry): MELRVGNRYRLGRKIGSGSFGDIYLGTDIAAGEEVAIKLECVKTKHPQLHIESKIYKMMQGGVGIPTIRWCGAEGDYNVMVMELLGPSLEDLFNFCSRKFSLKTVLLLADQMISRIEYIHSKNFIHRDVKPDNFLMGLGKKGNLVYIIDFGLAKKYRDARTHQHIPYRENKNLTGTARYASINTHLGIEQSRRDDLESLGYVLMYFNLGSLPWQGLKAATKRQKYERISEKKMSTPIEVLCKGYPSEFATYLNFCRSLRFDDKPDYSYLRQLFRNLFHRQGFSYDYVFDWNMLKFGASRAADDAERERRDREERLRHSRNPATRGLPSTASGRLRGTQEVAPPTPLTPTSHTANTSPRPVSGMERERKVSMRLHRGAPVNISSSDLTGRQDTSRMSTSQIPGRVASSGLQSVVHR

| SMILES | IC50 [nM] |
| --- | --- |
| O=C(Nc1nc2cc3c(cc2[nH]1)OC(F)(F)O3)c1cccc([N+](=O)[O-])c1 [Compound 65, N-(2,2-difluoro-5H-[1,3]dioxolo[4′,5′:4,5]benzo[1,2-d]imidazol-6-yl)-3-nitrobenzamide] | < 200 |
| O=C(Nc1nc2cc3c(cc2[nH]1)OC(F)(F)O3)c1cccc(C(F)(F)F)c1 [Compound 66, N-(2,2-difluoro-5H-[1,3]dioxolo[4′,5′:4,5]benzo[1,2-d]imidazol-6-yl)-3-(trifluoromethyl)benzamide] | < 200 |
| O=C(Nc1nc2cc3c(cc2[nH]1)OC(F)(F)O3)c1cnco1 [Compound 71, N-(2,2-difluoro-5H-[1,3]dioxolo[4′,5′:4,5]benzo[1,2-d]imidazol-6-yl)oxazole-5-carboxamide] | 200 to 1000 |
| O=C(Nc1nc2cc3c(cc2[nH]1)OC(F)(F)O3)c1ccno1 [Compound 72, N-(2,2-difluoro-5H-[1,3]dioxolo[4′,5′:4,5]benzo[1,2-d]imidazol-6-yl)isoxazole-5-carboxamide] | 200 to 1000 |
| O=C(Nc1nc2cc3c(cc2[nH]1)OC(F)(F)O3)c1cc[nH]n1 [Compound 73, N-(2,2-difluoro-5H-[1,3]dioxolo[4′,5′:4,5]benzo[1,2-d]imidazol-6-yl)-1H-pyrazole-3-carboxamide] | > 1000 |
| CCNc1ccc(C(=O)Nc2nc3cc4c(cc3[nH]2)OC(F)(F)O4)cc1 [Compound 77, N-(2,2-difluoro-5H-[1,3]dioxolo[4′,5′:4,5]benzo[1,2-d]imidazol-6-yl)-4-(ethylamino)benzamide] | < 200 |
| O=C(Nc1nc2cc3c(cc2[nH]1)OC(F)(F)O3)c1cccnc1 [Compound 78, N-(2,2-difluoro-5H-[1,3]dioxolo[4′,5′:4,5]benzo[1,2-d]imidazol-6-yl)nicotinamide] | < 200 |
| N#Cc1ccc(C(=O)Nc2nc3cc4c(cc3[nH]2)OC(F)(F)O4)c(F)c1 [Compound 93, 4-cyano-N-(2,2-difluoro-5H-[1,3]dioxolo[4′,5′:4,5]benzo[1,2-d]imidazol-6-yl)-2-fluorobenzamide] | > 1000 |
| NC(=O)c1ccc(C(=O)Nc2nc3cc4c(cc3[nH]2)OC(F)(F)O4)c(F)c1 [Compound 94, N^1-(2,2-difluoro-5H-[1,3]dioxolo[4′,5′:4,5]benzo[1,2-d]imidazol-6-yl)-2-fluoroterephthalamide] | < 200 |
| NS(=O)(=O)c1cccc(C(=O)Nc2nc3cc4c(cc3[nH]2)OC(F)(F)O4)c1 [Compound 100, N-(2,2-difluoro-5H-[1,3]dioxolo[4′,5′:4,5]benzo[1,2-d]imidazol-6-yl)-3-sulfamoylbenzamide] | < 200 |
| O=C(Nc1nc2cc3c(cc2[nH]1)OC(F)(F)O3)c1c[nH]cn1 [Compound 103, N-(2,2-difluoro-5H-[1,3]dioxolo[4′,5′:4,5]benzo[1,2-d]imidazol-6-yl)-1H-imidazole-4-carboxamide] | 200 to 1000 |
| O=C(Nc1nc2cc3c(cc2[nH]1)OC(F)(F)O3)c1ccc(Cl)cc1 [Compound 106, 4-chloro-N-(2,2-difluoro-5H-[1,3]dioxolo[4′,5′:4,5]benzo[1,2-d]imidazol-6-yl)benzamide] | > 1000 |
| CS(=O)(=O)Nc1cccc(C(=O)Nc2nc3cc4c(cc3[nH]2)OC(F)(F)O4)c1 [Compound 108, N-(2,2-difluoro-5H-[1,3]dioxolo[4′,5′:4,5]benzo[1,2-d]imidazol-6-yl)-3-(methylsulfonamido)benzamide] | < 200 |
| Nc1ccc(C(=O)Nc2nc3cc4c(cc3[nH]2)OC(F)(F)O4)cn1 [Compound 110, 6-amino-N-(2,2-difluoro-5H-[1,3]dioxolo[4′,5′:4,5]benzo[1,2-d]imidazol-6-yl)nicotinamide] | 200 to 1000 |
| NS(=O)(=O)c1ccc(C(=O)Nc2nc3cc4c(cc3[nH]2)OC(F)(F)O4)cn1 [Compound 112, N-(2,2-difluoro-5H-[1,3]dioxolo[4′,5′:4,5]benzo[1,2-d]imidazol-6-yl)-6-sulfamoylnicotinamide] | < 200 |
| O=C(Nc1nc2cc3c(cc2[nH]1)OC(F)(F)O3)c1cccc(OC(F)(F)F)c1 [Compound 120, N-(2,2-difluoro-5H-[1,3]dioxolo[4′,5′:4,5]benzo[1,2-d]imidazol-6-yl)-3-(trifluoromethoxy)benzamide] | 200 to 1000 |

The next lines start with the values.

| IC50 [nM] | SMILES |
| --- | --- |
| 200 to 1000 | O=C(Nc1nc2cc3c(cc2[nH]1)OC(F)(F)O3)c1ccc([N+](=O)[O-])s1 [Compound 63, N-(2,2-difluoro-5H-[1,3]dioxolo[4′,5′:4,5]benzo[1,2-d]imidazol-6-yl)-5-nitrothiophene-2-carboxamide] |
| > 1000 | O=C(Nc1nc2cc3c(cc2[nH]1)OC(F)(F)O3)c1sccc1Cl [Compound 64, 3-chloro-N-(2,2-difluoro-5H-[1,3]dioxolo[4′,5′:4,5]benzo[1,2-d]imidazol-6-yl)thiophene-2-carboxamide] |
| > 1000 | O=C(Nc1nc2cc3c(cc2[nH]1)OC(F)(F)O3)c1ccccn1 [Compound 67, N-(2,2-difluoro-5H-[1,3]dioxolo[4′,5′:4,5]benzo[1,2-d]imidazol-6-yl)picolinamide] |
| < 200 | O=C(Nc1nc2cc3c(cc2[nH]1)OC(F)(F)O3)c1cccc(F)c1 [Compound 70, N-(2,2-difluoro-5H-[1,3]dioxolo[4′,5′:4,5]benzo[1,2-d]imidazol-6-yl)-3-fluorobenzamide] |
| 200 to 1000 | CCN(CC)c1ccc(C(=O)Nc2nc3cc4c(cc3[nH]2)OC(F)(F)O4)cc1 [Compound 74, 4-(diethylamino)-N-(2,2-difluoro-5H-[1,3]dioxolo[4′,5′:4,5]benzo[1,2-d]imidazol-6-yl)benzamide] |
| < 200 | CN(C)c1ccc(C(=O)Nc2nc3cc4c(cc3[nH]2)OC(F)(F)O4)cc1 [Compound 75, N-(2,2-difluoro-5H-[1,3]dioxolo[4′,5′:4,5]benzo[1,2-d]imidazol-6-yl)-4-(dimethylamino)benzamide] |
| < 200 | O=C(Nc1nc2cc3c(cc2[nH]1)OC(F)(F)O3)c1ccc(NCc2ccccc2)cc1 [Compound 76, 4-(benzylamino)-N-(2,2-difluoro-5H-[1,3]dioxolo[4′,5′:4,5]benzo[1,2-d]imidazol-6-yl)benzamide] |
| < 200 | O=C(Nc1nc2cc3c(cc2[nH]1)OC(F)(F)O3)C1CCCCC1 [Compound 80, N-(2,2-difluoro-5H-[1,3]dioxolo[4′,5′:4,5]benzo[1,2-d]imidazol-6-yl)cyclohexanecarboxamide] |
| < 200 | O=C(Nc1nc2cc3c(cc2[nH]1)OC(F)(F)O3)c1csc(-c2ccsc2)n1 [Compound 81, N-(2,2-difluoro-5H-[1,3]dioxolo[4′,5′:4,5]benzo[1,2-d]imidazol-6-yl)-2-(thiophen-3-yl)thiazole-4-carboxamide] |
| < 200 | O=C(Nc1nc2cc3c(cc2[nH]1)OC(F)(F)O3)c1csc(-c2ccc3c(c2)OCCO3)n1 [Compound 82, N-(2,2-difluoro-5H-[1,3]dioxolo[4′,5′:4,5]benzo[1,2-d]imidazol-6-yl)-2-(2,3-dihydrobenzo[b][1,4]dioxin-6-yl)thiazole-4-carboxamide] |
| < 200 | NS(=O)(=O)c1c[nH]c(C(=O)Nc2nc3cc4c(cc3[nH]2)OC(F)(F)O4)c1 [Compound 101, N-(2,2-difluoro-5H-[1,3]dioxolo[4′,5′:4,5]benzo[1,2-d]imidazol-6-yl)-4-sulfamoyl-1H-pyrrole-2-carboxamide] |
| < 200 | COC(=O)c1cccc(C(=O)Nc2nc3cc4c(cc3[nH]2)OC(F)(F)O4)c1 [Compound 105, methyl 3-((2,2-difluoro-5H-[1,3]dioxolo[4′,5′:4,5]benzo[1,2-d]imidazol-6-yl)carbamoyl)benzoate] |
| > 1000 | Cc1ccc(C(=O)Nc2nc3cc4c(cc3[nH]2)OC(F)(F)O4)cc1 [Compound 107, N-(2,2-difluoro-5H-[1,3]dioxolo[4′,5′:4,5]benzo[1,2-d]imidazol-6-yl)-4-methylbenzamide] |
| 200 to 1000 | O=C(Nc1nc2cc3c(cc2[nH]1)OC(F)(F)O3)c1ccc(Cl)c(Cl)c1 [Compound 109, 3,4-dichloro-N-(2,2-difluoro-5H-[1,3]dioxolo[4′,5′:4,5]benzo[1,2-d]imidazol-6-yl)benzamide] |
| < 200 | O=C(Nc1nc2cc3c(cc2[nH]1)OC(F)(F)O3)c1cccc(O)c1 [Compound 113, N-(2,2-difluoro-5H-[1,3]dioxolo[4′,5′:4,5]benzo[1,2-d]imidazol-6-yl)-3-hydroxybenzamide] |
| < 200 | CC(=O)c1cccc(C(=O)Nc2nc3cc4c(cc3[nH]2)OC(F)(F)O4)c1 [Compound 114, 3-acetyl-N-(2,2-difluoro-5H-[1,3]dioxolo[4′,5′:4,5]benzo[1,2-d]imidazol-6-yl)benzamide] |
| 200 to 1000 | CC(C)(C)c1ccc(C(=O)Nc2nc3cc4c(cc3[nH]2)OC(F)(F)O4)cc1 [Compound 115, 4-(tert-butyl)-N-(2,2-difluoro-5H-[1,3]dioxolo[4′,5′:4,5]benzo[1,2-d]imidazol-6-yl)benzamide] |
| < 200 | N#Cc1cccc(C(=O)Nc2nc3cc4c(cc3[nH]2)OC(F)(F)O4)c1 [Compound 116, 3-cyano-N-(2,2-difluoro-5H-[1,3]dioxolo[4′,5′:4,5]benzo[1,2-d]imidazol-6-yl)benzamide] |
| < 200 | O=C(Nc1nc2cc3c(cc2[nH]1)OC(F)(F)O3)c1cccc(-c2nnn[nH]2)c1 [Compound 118, N-(2,2-difluoro-5H-[1,3]dioxolo[4′,5′:4,5]benzo[1,2-d]imidazol-6-yl)-3-(1H-tetrazol-5-yl)benzamide] |
| 200 to 1000 | O=C(Nc1nc2cc3c(cc2[nH]1)OC(F)(F)O3)c1ccc(F)cc1 [Compound 119, N-(2,2-difluoro-5H-[1,3]dioxolo[4′,5′:4,5]benzo[1,2-d]imidazol-6-yl)-4-fluorobenzamide] |
| < 200 | O=C(Nc1nc2cc3c(cc2[nH]1)OC(F)(F)O3)c1cccc(OC(F)F)c1 [Compound 121, N-(2,2-difluoro-5H-[1,3]dioxolo[4′,5′:4,5]benzo[1,2-d]imidazol-6-yl)-3-(difluoromethoxy)benzamide] |
